The text below walks through data of patent publication US9241889B2, “Oral compositions comprising sodium dodecylbenzene sulfonate” (Glaxo Group Limited, priority 2010, dated 2016).

The nature of assay [1]: Hydroxyapatite Stain Prevention Model (HASP). Here is the method:
A 96 well hydroxyapatite coated microtitre plate was treated with whole unstimulated human saliva (100 μl per well) at 37° C./100 rpm. After 1 hour the plate was washed to remove any unbound components and 200 μl of each test active was transferred to the plate in columns along with a positive and negative control (5% sodium tripolyphosphate, STP), and water respectively) and the plate returned to the incubator. After 10 minutes the plate was once again washed and the plate was stained by the application of 200 μl of fresh tea solution (1 teabag (PG tips)/50 ml of deionised water). After an additional 10 minutes of incubation, the tea was removed and the plate washed. Finally, the bound stain was desorbed by the application of 200 μl of 2.5M citric acid per well. After a minimum of 12 hours, 180 μl of the tea/citric acid solutions were transferred to a clean, normal (not HA coated) 96 well microtitre plate and the absorption measured 405 nm.

A short description of assay [2]: Hydroxyapatite Tea Stain Removal Model (HATSR). As for the experimental part: A 96 well hydroxyapatite coated microtitre plate was treated with 100 μl aliquots of tea per well (1 teabag (PG Tips)/50 ml of deionised water) and the plate incubated at 37° C./100 rpm. After 10 minutes the plate was washed with deionised water and dried at 37° C. overnight. The test actives (200 μl per well) were added into each column of the tea coated plate along with the positive and negative control (5% sodium tripolyphosphate (STP) and water respectively) and the plate returned to the incubator. After 10 minutes the plate was once again washed and the bound stain was desorbed by the application of 200 μl of 2.5M citric acid per well. After a minimum of 12 hours, 180 μl of the tea/citric acid solutions were transferred to a clean, normal (not HA coated) 96 well microtitre plate and the absorption measured 405 nm.

Regarding “sodium dodecylbenzene sulphonate [SDDBS]”, the “stain prevention versus water negative control” value in assay [1] (0.1% SDDBS, pH 7, FIG. 1) was “only directionally superior”; in assay [1] (all SDDBS concentrations except 0.1%, pH 7, FIG. 1), “statistically superior to the water negative control”. The “stain prevention (uptake of dietary stain onto HASP model oral surfaces)” value in assay [1] (SDDBS solutions 0.1%-10%, pH 7, n=8, FIG. 1) was “prevents the uptake of dietary stain”. Moreover, the “stain prevention versus positive control 5% STP” value in assay [1] (all SDDBS concentrations 0.1%-10%, pH 7, FIG. 1) is listed as “none were as effective as the positive control STP”. The “stain prevention versus SLS” value in assay [1] (equivalent concentration (1% surfactant), pH 7, n=8, FIG. 3) is reported as “statistically superior to sodium lauryl sulphate (SLS)”. In assay [2] (SDDBS solutions 0.1%-10%, pH 7, n=8, FIG. 2), the stain removal result is “removes stain in a dose dependent manner”. Further, in assay [2] (all SDDBS concentrations except 0.125%, pH 7, FIG. 2), the “stain removal versus water negative control” value is on record as “statistically superior to the water negative control”. In addition, the “stain removal versus positive control 5% STP” value in assay [2] (all SDDBS concentrations, pH 7, FIG. 2) is “none were as effective as the positive control STP”.
